Assay results from patent publication US20230089867A1, “CYCLIC PENTAMER COMPOUNDS AS PROPROTEIN CONVERTASE SUBTILISIN/KEXIN TYPE 9 (PCSK9) INHIBITORS FOR THE TREATMENT OF METABOLIC DISORDER” (Novartis AG, priority 2018, published 2023).

Target: human PCSK9 (Homo sapiens, UniProt Q8NBP7)
Assay: PCSK9 ligand binding TR-FRET assay (interference with binding of human PCSK9 to human LDLR)
Details: for Max % inhibition: PCSK9 FRET assay, efficacy (Amax), 100% = 1 uM unlabeled human PCSK9, 0% = DMSO; for IC50: TR-FRET, human PCSK9 Alexa Fluor 647 / human LDLR extracellular domain-Europium Kryptate, read-out: PCSK9 FRET Assay IC50
In short: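 Threefold compound dilutions were pre-incubated 30 min with PCSK9, after which 4 nM Europium Kryptate-tagged human LDLR ectodomain was added for a further 2 h.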

Chain of human PCSK9 (Q8NBP7 153-692): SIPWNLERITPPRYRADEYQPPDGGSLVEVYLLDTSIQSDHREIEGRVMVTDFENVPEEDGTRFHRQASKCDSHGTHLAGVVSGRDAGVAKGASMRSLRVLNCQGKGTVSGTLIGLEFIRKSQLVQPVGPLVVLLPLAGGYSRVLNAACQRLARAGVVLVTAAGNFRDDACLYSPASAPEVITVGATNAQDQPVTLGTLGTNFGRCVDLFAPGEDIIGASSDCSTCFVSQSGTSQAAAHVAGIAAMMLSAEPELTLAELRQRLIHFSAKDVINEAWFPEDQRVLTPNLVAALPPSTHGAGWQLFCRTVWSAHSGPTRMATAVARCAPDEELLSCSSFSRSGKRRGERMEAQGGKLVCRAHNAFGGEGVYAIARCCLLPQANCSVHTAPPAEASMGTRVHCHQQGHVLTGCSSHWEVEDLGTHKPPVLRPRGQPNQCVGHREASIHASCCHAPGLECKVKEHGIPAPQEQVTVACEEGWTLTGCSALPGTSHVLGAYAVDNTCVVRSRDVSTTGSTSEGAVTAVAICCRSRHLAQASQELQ
Chain of human PCSK9 (Q8NBP7 31-152 partner limits assumed): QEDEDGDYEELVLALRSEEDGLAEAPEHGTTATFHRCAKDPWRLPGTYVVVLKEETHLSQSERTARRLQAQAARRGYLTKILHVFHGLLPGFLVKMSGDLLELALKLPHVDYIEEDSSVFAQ

Row | SMILES | Max % inhibition [%] | IC50 [nM]
1 | C[C@H]1CNC(=O)C[C@H](Cc2ccc(Cl)cc2)N(C)C(=O)[C@H](CO)NC(=O)[C@H](C)N(Cc2ccc(Cl)cc2Oc2ccc(-c3cnc(CN(C)C)n3C)cc2)C(=O)C[C@@H](Cc2ccccc2)C(=O)N1C [Compound 142, (2S,5S,8S,13S,16R)-16-benzyl-1-(4-chloro-2-(4-(2-((dimethylamino)methyl)-1-methyl-1H-imidazol-5-yl)phenoxy)benzyl)-8-(4-chlorobenzyl)-5-(hydroxymethyl)-2,7,13,14-tetramethyl-1,4,7,11,14-pentaazacyclooctadecane-3,6,10,15,18-pentaone] | 100.91 | 1.2
2 | COC[C@@H]1NC(=O)[C@H](C)N(Cc2ccc(Cl)cc2Oc2ccc(-c3cnc(CN(C)C)n3C)cc2)C(=O)C[C@@H](Cc2ccccc2)C(=O)N(C)C2(CC2)CNC(=O)C[C@H](Cc2ccc(Cl)cc2)N(C)C1=O [Compound 144, (6R,10S,13S,16S)-6-benzyl-9-(4-chloro-2-(4-(2-((dimethylamino)methyl)-1-methyl-1H-imidazol-5-yl)phenoxy)benzyl)-16-(4-chlorobenzyl)-13-(methoxymethyl)-4,10,15-trimethyl-4,9,12,15,19-pentaazaspiro[2.17]icosane-5,8,11,14,18-pentaone] | 100.34 | 7
3 | COC[C@@H]1NC(=O)[C@H](C)N(Cc2ccc(Cl)cc2Oc2ccc(-c3cnc(CN(C)C)n3C)cc2)C(=O)C[C@@H](Cc2ccccc2)C(=O)N(C)[C@H]2CCCC[C@@H]2NC(=O)C[C@H](Cc2ccc(Cl)cc2)N(C)C1=O [Compound 145, (4S,7S,10S,14R,16aS,20aS)-14-benzyl-11-(4-chloro-2-(4-(2-((dimethylamino)methyl)-1-methyl-1H-imidazol-5-yl)phenoxy)benzyl)-4-(4-chlorobenzyl)-7-(methoxymethyl)-5,10,16-trimethylhexadecahydrobenzo[l][1,4,7,11,14]pentaazacyclooctadecine-2,6,9,12,15(3H)-pentaone] | 102.40 | 1.1
4 | Cc1c(CN2CCCC2)cncc1-c1ccc(Oc2cc(Cl)ccc2CN2C(=O)C[C@@H](Cc3ccccc3)C(=O)N(C)[C@@H](C)CNC(=O)C[C@H](Cc3ccc(Cl)cc3)N(C)C(=O)[C@H](CO)NC(=O)[C@@H]2C)cc1 [Compound 146, (2S,5S,8S,13S,16R)-16-benzyl-1-(4-chloro-2-(4-(4-methyl-5-(pyrrolidin-1-ylmethyl)pyridin-3-yl)phenoxy)benzyl)-8-(4-chlorobenzyl)-5-(hydroxymethyl)-2,7,13,14-tetramethyl-1,4,7,11,14-pentaazacyclooctadecane-3,6,10,15,18-pentaone] | 51.67 | 3.1
5 | C[C@H]1CNC(=O)C[C@H](Cc2ccc(Cl)cc2)N(C)C(=O)[C@H](Cc2nnn[nH]2)NC(=O)[C@H](C)N(Cc2ccc(Cl)cc2Oc2ccc(-c3cnc(CN(C)C)n3C)cc2)C(=O)C[C@@H](Cc2ccccc2)C(=O)N1C [Compound 148, (2S,5S,8S,13S,16R)-5-((1H-tetrazol-5-yl)methyl)-16-benzyl-1-(4-chloro-2-(4-(2-((dimethylamino)methyl)-1-methyl-1H-imidazol-5-yl)phenoxy)benzyl)-8-(4-chlorobenzyl)-2,7,13,14-tetramethyl-1,4,7,11,14-pentaazacyclooctadecane-3,6,10,15,18-pentaone] | 94.67 | 29.2
6 | CCOC(=O)c1ncn(-c2ccc(Oc3cc(Cl)ccc3CN3C(=O)C[C@@H](Cc4ccccc4)C(=O)N(C)[C@@H](C)CNC(=O)C[C@H](Cc4ccc(Cl)cc4)N(C)C(=O)[C@H](COC)NC(=O)[C@@H]3C)cc2)c1C [Compound 149, ethyl 1-(4-(2-(((2S,5S,8S,13S,16R)-16-benzyl-8-(4-chlorobenzyl)-5-(methoxymethyl)-2,7,13,14-tetramethyl-3,6,10,15,18-pentaoxo-1,4,7,11,14-pentaazacyclooctadecan-1-yl)methyl)-5-chlorophenoxy)phenyl)-5-methyl-1H-imidazole-4-carboxylate] | 72.43 | 18.7
7 | CCc1ccc(CN2C(=O)C[C@@H](Cc3ccccc3)C(=O)N(C)[C@@H](C)CNC(=O)C[C@H](Cc3ccc(Cl)cc3)N(C)C(=O)[C@H](COC)NC(=O)[C@@H]2C)c(Oc2ccc(-c3cnc(CN4CCCC4)n3C)cc2)c1.Cl [Compound 150, (2S,5S,8S,13S,16R)-16-benzyl-8-(4-chlorobenzyl)-1-(4-ethyl-2-(4-(1-methyl-2-(pyrrolidin-1-ylmethyl)-1H-imidazol-5-yl)phenoxy)benzyl)-5-(methoxymethyl)-2,7,13,14-tetramethyl-1,4,7,11,14-pentaazacyclooctadecane-3,6,10,15,18-pentaone hydrochloride] | 104.13 | 0.8
8 | CCC(O)c1ncc(-c2ccc(Oc3cc(Cl)ccc3CN3C(=O)C[C@@H](Cc4ccccc4)C(=O)N(C)[C@@H](C)CNC(=O)C[C@H](Cc4ccc(Cl)cc4)N(C)C(=O)[C@H](COC)NC(=O)[C@@H]3C)cc2)n1C (stereo partly drawn) [Compound 151, (2S,5S,8S,13S,16R)-16-benzyl-1-(4-chloro-2-(4-(2-(1-hydroxypropyl)-1-methyl-1H-imidazol-5-yl)phenoxy)benzyl)-8-(4-chlorobenzyl)-5-(methoxymethyl)-2,7,13,14-tetramethyl-1,4,7,11,14-pentaazacyclooctadecane-3,6,10,15,18-pentaone] | 64.23 | 8.8
9 | COC[C@@H]1NC(=O)[C@H](C)N(Cc2ccc(Cl)cc2Oc2ccc(-c3cnc([C@@H](C)N4CCCC4)n3C)cc2)C(=O)C[C@@H](Cc2ccccc2)C(=O)N(C)[C@H]2CCCC[C@@H]2NC(=O)C[C@H](Cc2ccc(Cl)cc2)N(C)C1=O [Compound 152, (4S,7S,10S,14R,16aS,20aS)-14-benzyl-11-(4-chloro-2-(4-(1-methyl-2-((R)-1-(pyrrolidin-1-yl)ethyl)-1H-imidazol-5-yl)phenoxy)benzyl)-4-(4-chlorobenzyl)-7-(methoxymethyl)-5,10,16-trimethylhexadecahydrobenzo[l][1,4,7,11,14]pentaazacyclooctadecine-2,6,9,12,15(3H)-pentaone] | 107.64 | 1.2
10 | COC[C@@H]1NC(=O)[C@H](C)N(Cc2c(OC)cccc2Oc2ccc(-c3cnc(CN(C)C)n3C)cc2)C(=O)C[C@@H](Cc2ccccc2)C(=O)N(C)[C@@H](C)CNC(=O)C[C@H](Cc2ccc(Cl)cc2)N(C)C1=O [Compound 154, (2S,5S,8S,13S,16R)-16-benzyl-8-(4-chlorobenzyl)-1-(2-(4-(2-((dimethylamino)methyl)-1-methyl-1H-imidazol-5-yl)phenoxy)-6-methoxybenzyl)-5-(methoxymethyl)-2,7,13,14-tetramethyl-1,4,7,11,14-pentaazacyclooctadecane-3,6,10,15,18-pentaone] | 80.05 | 5.1
11 | COC[C@@H]1NC(=O)[C@H](C)N(Cc2ccc(Cl)cc2Oc2ccc(-c3cnc(CN4CCCC4)n3C)cc2)C(=O)C[C@@H](Cc2cccc(F)c2)C(=O)N(C)[C@@H](C)CNC(=O)C[C@H](Cc2ccc(Cl)cc2)N(C)C1=O [Compound 155, (2S,5S,8S,13S,16R)-1-(4-chloro-2-(4-(1-methyl-2-(pyrrolidin-1-ylmethyl)-1H-imidazol-5-yl)phenoxy)benzyl)-8-(4-chlorobenzyl)-16-(3-fluorobenzyl)-5-(methoxymethyl)-2,7,13,14-tetramethyl-1,4,7,11,14-pentaazacyclooctadecane-3,6,10,15,18-pentaone] | 98.43 | 0.8
12 | COCC[C@H]1C(=O)N[C@@H](COC)C(=O)N(C)[C@@H](Cc2ccc(Cl)cc2)CC(=O)NC[C@H](C)N(C)C(=O)[C@H](Cc2ccccc2)CC(=O)N1Cc1ccc(Cl)cc1Oc1ccc(-c2cnc(CN(C)C)n2C)cc1 [Compound 156, (2S,5S,8S,13S,16R)-16-benzyl-1-(4-chloro-2-(4-(2-((dimethylamino)methyl)-1-methyl-1H-imidazol-5-yl)phenoxy)benzyl)-8-(4-chlorobenzyl)-2-(2-methoxyethyl)-5-(methoxymethyl)-7,13,14-trimethyl-1,4,7,11,14-pentaazacyclooctadecane-3,6,10,15,18-pentaone] | 108.38 | 3.7
13 | COC[C@@H]1NC(=O)[C@H](C)N(Cc2ccc(Cl)cc2Oc2ccc(-c3cnc(CN4CC5(COC5)C4)n3C)cc2)C(=O)C[C@@H](Cc2ccccc2)C(=O)N(C)[C@H]2CCCC[C@@H]2NC(=O)C[C@H](Cc2ccc(Cl)cc2)N(C)C1=O [Compound 157, (4S,7S,10S,14R,16aS,20aS)-11-(2-(4-(2-(2-oxa-6-azaspiro[3.3]heptan-6-ylmethyl)-1-methyl-1H-imidazol-5-yl)phenoxy)-4-chlorobenzyl)-14-benzyl-4-(4-chlorobenzyl)-7-(methoxymethyl)-5,10,16-trimethylhexadecahydrobenzo[l][1,4,7,11,14]pentaazacyclooctadecine-2,6,9,12,15(3H)-pentaone] | 89.28 | 1.8
14 | COC[C@@H]1NC(=O)[C@H](CCCN2CCOCC2)N(Cc2ccc(Cl)cc2Oc2ccc(-c3cnc(CN(C)C)n3C)cc2)C(=O)C[C@@H](Cc2ccccc2)C(=O)N(C)[C@@H](C)CNC(=O)C[C@H](Cc2ccc(Cl)cc2)N(C)C1=O [Compound 158, (2S,5S,8S,13S,16R)-16-benzyl-1-(4-chloro-2-(4-(2-((dimethylamino)methyl)-1-methyl-1H-imidazol-5-yl)phenoxy)benzyl)-8-(4-chlorobenzyl)-5-(methoxymethyl)-7,13,14-trimethyl-2-(3-morpholinopropyl)-1,4,7,11,14-pentaazacyclooctadecane-3,6,10,15,18-pentaone] | 98.98 | 1.4
